Test results reported in patent publication US10752612B2, “PLK4 inhibitors” (LUDWIG INSTITUTE FOR CANCER RESEARCH LTD, priority 2015, dated 2020).

Biological target: T1, human Plk4 kinase domain (aa 2-275) (Homo sapiens, UniProt O00444)
T1 construct: purified 6×His-tagged human Plk4 kinase domain (aa 2-275); 6xHis; made in house; host or cells: E. coli
T1 sequence (O00444 2-275): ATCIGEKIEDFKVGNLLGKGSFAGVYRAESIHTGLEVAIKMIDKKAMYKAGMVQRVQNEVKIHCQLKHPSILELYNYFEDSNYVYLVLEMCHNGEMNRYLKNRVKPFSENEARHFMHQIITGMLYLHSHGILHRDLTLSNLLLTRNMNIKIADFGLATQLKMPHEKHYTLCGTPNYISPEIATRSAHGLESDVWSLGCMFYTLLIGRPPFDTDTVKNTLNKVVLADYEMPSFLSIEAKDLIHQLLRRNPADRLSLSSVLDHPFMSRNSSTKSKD
Assay: Plk4 kinase assay (ADP-Glo)
Type: biochemical
Conditions: Table 1
In short: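 Enzyme at 2.5-10 nM final, pH 8.0, reacted 4-16 hours at 25° C; ADP generation read by ADP-Glo luminescence. Ki derived from IC50 by Cheng-Prusoff or, for tight binders, Copeland formalism.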

Row | SMILES | IC50
1 | COc1c(Nc2cc(C)[nH]n2)nc(Sc2ccc(S(=O)(=O)Cc3ccccc3)cc2)nc1N1CCO[C@@H](C)C1 | < 1000 nM
2 | COc1c(Nc2cc(C)[nH]n2)nc(Sc2ccc(S(=O)(=O)Cc3cccc(NC(C)=O)c3)cc2)nc1N1CCN(CCN(C)C)CC1 | < 1000 nM
3 | CCS(=O)(=O)c1ccc(Sc2nc(Nc3cc(C)[nH]n3)c(OC)c(N3CCC(CCN4C5CCCC4CCC5)CC3)n2)cc1 | < 1000 nM
4 | COc1c(Nc2cc(C)[nH]n2)nc(Sc2ccc(NC(C)=O)cc2)nc1N1CCN(CCN(C)C)C(C)C1 (stereo not shown) | < 1000 nM
5 | CCC(=O)N1CCN(c2nc(Sc3ccc(NC(C)=O)cc3)nc(Nc3cc(C)[nH]n3)c2OC)CC1 | < 1000 nM
6 | Cc1cc(Nc2nc(Sc3ccc(NC(=O)C4CC4)cc3)nc(N3CCCCC3)c2C)n[nH]1 | < 1000 nM
7 | Cc1cc(Nc2nc(Sc3ccc(N)cc3)nc3c2CCC32CCN(CCN(C)C)CC2)n[nH]1 | < 1000 nM
8 | CCS(=O)(=O)c1ccc(Sc2nc(Nc3cc(C)[nH]n3)c(OC)c(N3CCN(CCN4CCN(C)CC4)CC3)n2)cc1 | < 1000 nM
9 | Cc1cc(Nc2nc(Sc3ccccc3)nc(N3CCOCC3)c2C)n[nH]1 | < 1000 nM
10 | COc1c(Nc2cc(C)[nH]n2)nc(Sc2ccc(S(C)(=O)=O)cc2F)nc1N1CCC(CCN(C)C)CC1 | < 1000 nM
11 | Cc1cc(Nc2nc(Sc3ccc(NC(=O)C4CC4)cc3)nc(NC(C)C)c2C)n[nH]1 | < 1000 nM
12 | CC(=O)Nc1ccc(Sc2nc(Nc3cc(C)[nH]n3)c(C)c(N3CC=CCC3)n2)cc1 | < 1000 nM
13 | CCS(=O)(=O)c1ccc(Sc2nc(C)c(OC)c(Nc3cc(C)[nH]n3)n2)cc1 | < 1000 nM
14 | COc1c(Nc2cc(C)[nH]n2)nc(Sc2ccc(S(=O)(=O)Cc3cccc([N+](=O)[O-])c3)cc2)nc1N1CCO[C@H](C)C1 | < 1000 nM
15 | CCOc1c(Nc2cc(C)[nH]n2)nc(Sc2ccc(NC(C)=O)cc2)nc1N1CCN(CCOC)CC1 | 100 to 1000 nM
16 | CCOc1c(Nc2cc(C)[nH]n2)nc(SC)nc1N1CCC(O)CC1 | 100 to 1000 nM
17 | COc1c(Nc2cc(C)[nH]n2)nc(Sc2ccc(S(C)(=O)=O)cc2)nc1N1CCN(CCN2CCN(C)CC2)CC1 | < 1000 nM
18 | COc1c(Nc2cc(C)[nH]n2)nc(Sc2ccc(S(=O)(=O)C(C)(C)c3c(F)c(F)cc(F)c3F)cc2F)nc1N1CCC(NC(C)=O)CC1 | < 1000 nM
19 | CC(=O)Nc1ccc(Sc2nc(Nc3cc(C)[nH]n3)c(C)c(N3CCCCC3C)n2)cc1 (stereo not shown) | < 1000 nM
20 | Cc1cc(Nc2nc(Sc3ccc(NC(=O)C4CCC4)cc3)nc(N3CCN(C)CC3)c2C)n[nH]1 | < 1000 nM
21 | COc1c(Nc2cc(C)[nH]n2)nc(Sc2ccc(C(=O)Oc3cccc([N+](=O)[O-])c3F)cc2F)nc1N1CCOCC1 | < 1000 nM
22 | COc1c(Nc2cc(C)[nH]n2)nc(Sc2ccc(S(=O)(=O)Cc3cccc(O)c3)cc2)nc1N1CCN(CCN(C)C)CC1 | < 1000 nM
23 | CC(=O)Nc1ccc(Sc2nc(Nc3cc(C)[nH]n3)c(C)c(NC3CCN(C)CC3)n2)cc1 | < 1000 nM

Row | SMILES | IC50
24 | CCOc1c(Nc2cc(C)[nH]n2)nc(Sc2ccc(NC(=O)C3CC3)cc2)nc1N1CCN(C(=O)CN(C)C)CC1 | 100 to 1000 nM
25 | CC(=O)Nc1ccc(Sc2nc(Nc3cc(C)[nH]n3)c(C)c(N3CCOC[C@@H]3C)n2)cc1 | < 1000 nM
26 | COc1c(Nc2cc(C)[nH]n2)nc(Sc2ccc(S(=O)(=O)C(C)(C)c3c(F)c(F)cc(Cl)c3F)cc2F)nc1N1CCOCC1 | < 1000 nM
27 | Cc1ccc(Sc2nc(Nc3cc(C)[nH]n3)c(C)c(N3CCOCC3)n2)cc1 | < 1000 nM
28 | COc1c(Nc2cc(C)[nH]n2)nc(Sc2ccc(S(=O)(=O)Cc3ncc[nH]3)cc2)nc1N1CCN(CCN(C)C)CC1 | < 1000 nM
29 | COc1c(Nc2cc(C)[nH]n2)nc(Sc2ccc(S(=O)(=O)C(C)(C)c3cc(F)cc(Cl)c3F)cc2F)nc1N1CCOCC1 | < 1000 nM
30 | CC(=O)Nc1ccc(Sc2nc(Nc3cc(C)[nH]n3)c(C)c(N3CCNCC3)n2)cc1 | < 1000 nM
31 | CC(=O)Nc1ccc(Sc2nc(Nc3cc(C)[nH]n3)c(Cl)c(N3CCN(C)CC3)n2)cc1 | < 1000 nM
32 | CCOc1c(Nc2cc(C)[nH]n2)nc(Sc2ccc(NC(C)=O)cc2)nc1N1CCN(C(C)=O)CC1 | 100 to 1000 nM
33 | COc1c(Nc2cc(C)[nH]n2)nc(Sc2ccc(C(=O)Cc3cccc([N+](=O)[O-])c3F)cc2F)nc1N1CCOCC1 | < 1000 nM
34 | CC(=O)Nc1ccc(Sc2nc(Nc3cc(C)[nH]n3)c3c(n2)C2(CC3)CCN(C(=O)C(C)(C)C)CC2)cc1 | < 1000 nM
35 | COc1c(Nc2cc(C)[nH]n2)nc(Sc2ccc(NC(=O)C3CCCC3)cc2)nc1N1CCN(C(C)=O)CC1 | < 1000 nM
36 | COCCNc1nc(Sc2ccc(NC(=O)C3CC3)cc2)nc(Nc2cc(C)[nH]n2)c1OC | < 1000 nM
37 | CCS(=O)(=O)c1ccc(Sc2nc(Nc3cc(C)[nH]n3)c(OC)c(N3CCOCC3)n2)c(Cl)c1 | < 1000 nM
38 | COc1c(Nc2cc(C)[nH]n2)nc(Sc2ccc(S(=O)(=O)Cc3cccc([N+](=O)[O-])c3)cc2F)nc1N1CCN(CCN(C)C)CC1 | < 1000 nM
39 | COc1c(Nc2cc(C)[nH]n2)nc(Sc2ccc(S(=O)(=O)Cc3ccccc3)cc2)nc1N1CCN(CCN2CCCCCC2)CC1 | < 1000 nM
40 | CNC1CCN(c2nc(Sc3ccc(S(=O)(=O)C(C)(C)c4cccc([N+](=O)[O-])c4F)cc3F)nc(Nc3cc(C)[nH]n3)c2OC)CC1 | < 1000 nM
41 | COc1c(Nc2cc(C)[nH]n2)nc(Sc2ccc(S(=O)(=O)C(C)(C)c3c(F)c(F)cc(F)c3F)cc2F)nc1N1CCN(CCN(C)C)CC1 | < 1000 nM
42 | CC(=O)N1CCN(c2nc(Sc3ccc(NC(=O)C4CC4)cc3)nc(Nc3cc(C)[nH]n3)c2C)CC1 | < 1000 nM
43 | COc1c(Nc2cc(C)[nH]n2)nc(Sc2ccc(S(=O)(=O)Cc3ccccc3C#N)cc2)nc1N1CCN(CCN(C)C)CC1 | < 1000 nM
44 | CC(=O)Nc1ccc(Sc2nc(Nc3cc(C)[nH]n3)c(C)c(N3CCC(C)(O)CC3)n2)cc1 | < 1000 nM
45 | COc1c(Nc2cc(C)[nH]n2)nc(Sc2ccc(NC(C)=O)cc2)nc1N1CCC(OCCN(C)C)CC1 | 100 to 1000 nM
46 | COCC(=O)N1CCN(c2nc(Sc3ccc(NC(C)=O)cc3)nc(Nc3cc(C)[nH]n3)c2OC)CC1 | < 1000 nM

Second part, the compound after the results:

Row | IC50 | SMILES
47 | < 1000 nM | COc1c(Nc2cc(C)[nH]n2)nc(Sc2ccc(S(=O)(=O)Cc3ccccc3)cc2Cl)nc1N1CCN(CCN(C)C)CC1
48 | < 1000 nM | COc1c(Nc2cc(C)[nH]n2)nc(Sc2ccc(S(=O)(=O)Cc3cccc(N)c3F)cc2F)nc1N1CCOCC1
49 | < 1000 nM | COc1c(Nc2cc(C)[nH]n2)nc(Sc2ccc(S(=O)(=O)Cc3ccccc3)cc2)nc1N1CCC(CCN2CCN(C)CC2)CC1
50 | < 1000 nM | Cc1cc(Nc2nc(Sc3ccc(N)cc3)nc(N3CCCCC3)c2C)n[nH]1
51 | < 1000 nM | COc1c(Nc2cc(C)[nH]n2)nc(Sc2ccc(S(=O)(=O)Cc3ccccc3C(=O)N(C)C)cc2)nc1N1CCN(CCN(C)C)CC1
52 | < 1000 nM | COCC(=O)N1CCN(c2nc(Sc3ccc(NC(=O)C4CC4)cc3)nc(Nc3cc(C)[nH]n3)c2OC)CC1
53 | < 1000 nM | Cc1cc(Nc2nc(Sc3ccc(NC(=O)C4CC4)cc3)nc(N3CCN(C(C)C)CC3)c2C)n[nH]1
54 | < 1000 nM | CNCC(=O)N1CCN(c2nc(Sc3ccc(NC(C)=O)cc3)nc(Nc3cc(C)[nH]n3)c2C)CC1
55 | < 1000 nM | COc1c(Nc2cc(C)[nH]n2)nc(Sc2ccc(S(=O)(=O)Cc3cccc([N+](=O)[O-])c3F)cc2F)nc1N1CCCC[C@@H]1CO
56 | < 1000 nM | COc1c(Nc2cc(C)[nH]n2)nc(Sc2ccc(S(=O)(=O)Cc3cccnc3)cc2)nc1N1CCN(CCN(C)C)CC1
57 | < 1000 nM | Cc1cc(Nc2nc(Sc3ccc(NC(=O)C4CC4)cc3)nc(N3CCOCC3)c2C)n[nH]1
58 | < 1000 nM | COc1c(Nc2cc(C)[nH]n2)nc(Sc2ccc(NC(=O)C3CC3)cc2)nc1N1CCNCC1
59 | < 1000 nM | COc1c(Nc2cc(C)[nH]n2)nc(Sc2ccc(S(=O)(=O)Cc3ccccc3)cc2)nc1N1CC2CCC(C1)O2
60 | 100 to 1000 nM | CCOc1c(Nc2cc(C)[nH]n2)nc(Sc2ccc(NC(C)=O)cc2)nc1N1CCN(C)CC1
61 | < 1000 nM | COCCN1CCN(c2nc(Sc3ccc(NC(=O)C4CCCC4)cc3)nc(Cc3cc(C)[nH]n3)c2C)CC1
62 | < 1000 nM | COc1c(Nc2cc(C)[nH]n2)nc(Sc2ccc(S(=O)(=O)Cc3ccc(Cl)cc3)cc2)nc1N1CCN(CCN(C)C)CC1
63 | < 1000 nM | COCC(=O)N1CCN(c2nc(Sc3ccc(NC(C)=O)cc3)nc(Nc3cc(C)[nH]n3)c2C)CC1
64 | 100 to 1000 nM | CCOc1c(Nc2cc(C)[nH]n2)nc(Sc2ccc(NC(=O)C3CC3)cc2)nc1N1CCN(C(C)=O)CC1
65 | < 1000 nM | CC(=O)Nc1ccc(Sc2nc(Nc3cc(C)[nH]n3)c(C)c(N3CCC(OCCN(C)C)CC3)n2)cc1
66 | < 1000 nM | COc1c(Nc2cc(C)[nH]n2)nc(Sc2ccc([N+](=O)[O-])cc2)nc1N1CCN(CCN(C)C)CC1
67 | < 1000 nM | COC(=O)CC1CCN(c2nc(Sc3ccc(NC(C)=O)cc3)nc(Nc3cc(C)[nH]n3)c2OC)CC1
68 | < 1000 nM | CCN(C)CCN1CCN(c2nc(Sc3ccc(NC(C)=O)cc3)nc(Nc3cc(C)[nH]n3)c2OC)CC1
69 | < 1000 nM | COc1c(Nc2cc(C)[nH]n2)nc(Sc2ccc(NC(C)=O)cc2)nc1N1CCN(CCN2CCCCCC2)CC1
70 | < 1000 nM | COc1c(Nc2cc(C)[nH]n2)nc(Sc2ccc(S(=O)(=O)Cc3ccc([N+](=O)[O-])cc3)cc2)nc1N1CCN(CCN(C)C)CC1
71 | < 1000 nM | COc1c(Nc2cc(C)[nH]n2)nc(Sc2ccc(NC(C)=O)cc2)nc1C1=CCNCC1
72 | < 1000 nM | CNC(=O)Nc1ccc(Sc2nc(Nc3cc(C)[nH]n3)c(C)c(N(C)C(C)C)n2)cc1
73 | < 1000 nM | COc1c(Nc2cc(C)[nH]n2)nc(Sc2ccc(S(=O)(=O)CC(C)C)cc2)nc1N1CCN(CCN(C)C)CC1
74 | < 1000 nM | Cc1cc(Nc2nc(Sc3ccc(NC(=O)C4CC4)cc3)nc(NCCN(C)C)c2C)n[nH]1
75 | < 1000 nM | CC(=O)Nc1ccc(Sc2nc3c(c(Nc4cc(C)[nH]n4)n2)C(C)CC3)cc1 (stereo not shown)
76 | < 1000 nM | COc1c(Nc2cc(C)[nH]n2)nc(Sc2ccc(S(=O)(=O)Cc3cccc(-c4ccccc4)c3)cc2)nc1N1CCN(CCN(C)C)CC1
